The record followed here is patent US11174216B2, “Lipids that increase insulin sensitivity and methods of using the same” (Beth Israel Deaconess Medical Center, Inc., priority 2012, dated 2021).

For series [1], the system named is STC-1 cells. Nature of the series: ERK phosphorylation in STC-1 cells (immunoblot). In kind it is cell-based. The following applies: 15 minutes. On the procedure: For the experiments summarized in FIG. 50, STC-1 cells were incubated with 9-PAHSA, 5-PAHSA or 9-OAHSA at the indicated concentrations. Cells were harvested and lysed and proteins were separated by SDS PAGE and transferred onto nitrocellulose filters. The phosphorylation of ERK and the amount of total ERK was determined by immunoblotting with antibodies specific for total or phosphor-ERK. DMSO was the control. For ERK phosphorylation, cells were serum deprived overnight and stimulated with FAHFAs or vehicle as indicated for 15 minutes followed by lysis in RIPA buffer and analysis by SDS-PAGE

Series [2] relates to Ins1 cells. In words: Insulin release studies in Ins1 cells. In kind it is cell-based. The following applies: 25 mM glucose in the media. The procedure:
Ins1 cells (FIGS. 31A and 31B) or primary rat islet cells (FIG. 32A and FIG. 32B) were seeded in 24 well-plates [˜10^6 cells/well]. At confluence, cells were incubated with Low Serum [2.5%] and Low Glucose [2.5 mM] media for 12 hours. Next, cells were incubated with KRB buffer for 1 h and stimulated with glucose in the presence of 5-PAHSA (FIGS. 31a and 31B) or 9-PAHSA (FIG. 31B) for 45 min in KRB. At the end of the stimulation, 100 μL of media was collected and 10 μL was used to quantitate the amount of insulin released by ELISA. Treatment Conditions for FIGS. 31A, 31B and 32B were: • 5-PAHSA or 9-PAHSA [Stock]=20.0 mM [10.76 mg/mL Methanol] • A] 1 uM=0.3 uL/6 mL [Amount of methanol/mL=0.05 uL] • B] 5 uM=1.5 uL/6 mL [Amount of methanol/mL=0.25 uL] • C] 10 uM=3.0 uL/6 mL [Amount of methanol/mL=0.50 uL] • D] 20 uM=6.0 uL/6 mL [Amount of methanol/mL=1.00 uL]
Ins1 cells were seeded in 24 well-plates [˜10^6 cells/well] and at 80% confluence, were cultured overnight in RPMI 1640 medium containing 2.5 mM glucose and 2.5% fetal bovine serum supplemented with 100 IU/ml penicillin and […], 1 mM sodium pyruvate, 2-mercaptoethanol (50 μM) and 10 mM HEPES (pH 7.4). […] At the end of the stimulation supernatant was collected and insulin released into the medium was quantified by ELISA as per manufacturer's protocol. […]

In series [3] the test system is STC-1 cells. Nature of the series: Calcium flux (FURA2) in STC-1 cells. The following applies: 100 uM, no extracellular Ca2+. The class given is cell-based. The procedure:
For the experiments summarized in FIG. 49 the method is: Cells grown on collagen coated glass slides were preloaded with the calcium indicator, FURA2, for 60 minutes. Buffer containing either FAHFAs or vehicle was incubated with cells for a period of 3 minutes followed by washout with buffer alone. FURA2 fluorescence, an indicator of Calcium mobilization, was monitored continuously before and during the addition of compounds and throughout the washout period. Results were analyzed with metamorph software. Calcium Flux in STC-1 (intestinal enteroendocrine) cells in the absence of extracellular calcium (calcium free buffer). Ligands were injected after 3 minutes and washed out after an additional 3 minutes. The data presented is the average fold change in Fura2 fluorescence for 10 individual STC-1 cells in the same field.
DMSO control had no effect. Top panel is linoleic acid, a positive control. Middle panel 9-PAHSA (100 uM). Bottom panel 5-PAHSA (100 μM). These experiments were done in the absence of extracellular calcium.
Background: Calcium flux is commonly read through the fluorescence of an indicator in the cells.

Series [4] deals with STC-1 cells. Nature of the series: GLP-1 secretion in STC-1 enteroendocrine cells (ELISA). In kind it is cell-based. The procedure: For the experiments summarized in FIG. 51 STC-1 cells were incubated with vehicle (DMSO), 9-PAHSA, 5-PAHSA or 9-OAHSA at the indicated concentrations or lineolic acid (100 uM) as a positive control. Media was harvested and GLP-1 was measured by ELISA.
For the experiments summarized in FIG. 52, the same protocol as described for FIG. 51 was used, except in this experiment a time course was performed. For both FIG. 51 and FIG. 52, for GLP-1 secretion STC1 cells were washed 3× with serum free culture media followed by stimulation with FAHFAs or vehicle at the indicated concentrations and timepoints. Levels of active GLP-1 were measured by ELISA.

In series [5] the target is T1, GPR120 (Homo sapiens, UniProt Q5NUL3).
T1 sequence (Q5NUL3 1-361): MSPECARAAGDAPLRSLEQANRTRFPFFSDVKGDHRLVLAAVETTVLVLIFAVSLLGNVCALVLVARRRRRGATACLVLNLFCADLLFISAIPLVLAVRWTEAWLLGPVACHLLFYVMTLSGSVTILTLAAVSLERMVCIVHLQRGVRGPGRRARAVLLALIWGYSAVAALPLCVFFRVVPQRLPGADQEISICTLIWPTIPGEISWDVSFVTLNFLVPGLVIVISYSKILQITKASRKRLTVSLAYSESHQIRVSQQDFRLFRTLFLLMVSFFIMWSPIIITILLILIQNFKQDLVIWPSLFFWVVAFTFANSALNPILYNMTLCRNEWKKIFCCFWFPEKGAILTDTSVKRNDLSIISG
In words: PATHHUNTER beta-Arrestin GPCR assay. In kind it is cell-based. The source says:
For the experiments summarized in FIGS. 53-55, the fragment based GPCR assay from DiscoveRx (PATHHUNTER® β-Arrestin assay) was used to as per manufacturer's instructions to determine activation of specific GPCRs as indicated in FIGS. 53-55.

In series [6] the test system is carboxyl ester lipase (CEL).
For series [7], the system named is FAHFA hydrolysis activity in pancreas membrane lysate. In words: FAHFA hydrolysis activity assay, pancreas membrane lysate. The following applies: 1 mg/ml protein, 100 uM 9-PAHSA, 30 min, room temperature.

On to `CCCCCCCCCCCCCCCC(=O)OC(CCCCCCCCCCCCC)CCCC(=O)O` (centres unmarked) [5-PAHSA], for which the ERK phosphorylation result in series [1] was “induce ERK phosphorylation”. Further, the insulin secretion entry in series [2] was “potentiate insulin secretion”. Moreover, in series [3], the “Ca2+ flux from intracellular stores” value is reported as “induce Ca^2+ flux from intracellular stores”. The GLP-1 secretion entry in series [4] is reported as “induce GLP-1 secretion”. The “activation of GPR120” value in series [5] is given as “activate GPR120”.

For the molecule `CCCCCCCCCCCCCCCC(=O)OC(CCCCCCCCC)CCCCCCCC(=O)O` (centres unmarked) [9-PAHSA, palmitoyl-9-hydroxystearic acid], the ERK phosphorylation result in series [1] was “induce ERK phosphorylation”. In series [2], the insulin secretion result is given as “potentiate insulin secretion”. For the same molecule, in series [6], the “hydrolysis by HEK293T lysates transfected with CEL, AADACL1 or CES3” value is listed as “only CEL-transfected cell lysate was able to hydrolyze FAHFA above the level of background hydrolysis activity”. Besides, the “Ca2+ flux from intracellular stores” value in series [3] is “induce Ca^2+ flux from intracellular stores”. Besides, the “FAHFA hydrolysis activity, pancreas membrane versus liver membrane” value in series [7] is given as approximately 10 fold. Further, in series [4], the GLP-1 secretion entry is recorded as “induce GLP-1 secretion”; the “time course for GLP-1 secretion” value is “very rapid and sustained”. In addition, the “activation of GPR120” value in series [5] was “activate GPR120”. In addition, the “ligand for GPR120” value in series [5] (bar graph and titration curve) is listed as “is a ligand for the GPCR, GPR120”.
